The values that follow come from patent US6676925B1, “Sigma-2 receptors as biomarkers of tumor cell proliferation” (priority 1996, dated 2004).

In general, Ki refers to a measure of affinity in units of concentration, obtained from inhibition or displacement.

The structures appear in SMILES notation. Where only a bound is given, the exact number is not on record here.

In assay [1] the target is T1, Sigma-2 sites (Rattus norvegicus, UniProt Q5U3Y7).
T1 sequence (Q5U3Y7 1-176): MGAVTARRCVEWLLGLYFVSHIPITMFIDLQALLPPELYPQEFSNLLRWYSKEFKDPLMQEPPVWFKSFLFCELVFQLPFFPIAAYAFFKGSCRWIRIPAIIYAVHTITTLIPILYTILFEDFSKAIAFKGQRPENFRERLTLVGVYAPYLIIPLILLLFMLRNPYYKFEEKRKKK
The experiment in a line: σ2 binding assay, [^3H]DTG in rat liver membranes in the presence of 100 nM (+)-pentazocine.
Procedure: Assays were terminated by the addition of ice-cold 10 mM Tris-HCl, pH 8.0 followed by rapid filtration through Whatman GF/B glass fiber filters (presoaked in 0.5% polyethylenimine) using a Brandel cell harvester (Gaithersburg, Md.). Filters were then washed twice with 5 mL of ice cold buffer Nonspecific binding was determined in the presence of 5 μM DTG. Liquid scintillation counting was carried out in EcoLite(+) (ICN Radiochemicals; Costa Mesa, Calif.) using a Beckman LS 6000IC spectrometer with a counting efficiency of 50%. […] Typical counts for guinea pig brain were 16 dpm/μg protein for total binding, 2 dpm/μg protein for nonspecific binding, and 14 dpm/μg protein for specific binding.
(§1) The IC50 values at sigma sites were determined in triplicate from non-linear regression of binding data as analyzed by JMP (SAS Institute; Cary, N.C.), using 5-10 concentrations of each compound. Ki values were calculated using the Cheng-Prusoff equation and represent mean values ±SEM. All assays were done in triplicate unless otherwise noted.

For assay [2], the target named is Sigma-1 binding sites (Cavia porcellus, UniProt Q60492). The experiment in a line: σ1 binding assay, [^3H](+)-pentazocine in guinea pig brain membranes.
Sigma-1 binding sites, sequence (Q60492 whole entry): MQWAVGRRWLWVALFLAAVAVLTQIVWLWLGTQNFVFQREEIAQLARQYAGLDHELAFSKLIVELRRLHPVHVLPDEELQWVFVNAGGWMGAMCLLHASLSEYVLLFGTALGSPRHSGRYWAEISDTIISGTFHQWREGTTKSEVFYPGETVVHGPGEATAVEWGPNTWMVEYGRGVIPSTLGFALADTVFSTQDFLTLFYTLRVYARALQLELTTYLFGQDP
Procedure: Test compounds were dissolved in ethanol (7 concentrations ranging from 1-1000 nM) then diluted in buffer for a total incubation volume of 0.5 mL. Assays were terminated by the addition of ice-cold 10 mM Tris HCl, pH 8.0 followed by rapid filtration through Whatman GF/B glass fiber filters (presoaked in 0.5% polyethylenimine) using a Brandel cell harvester (Gaithersburg, Md.). Filters were washed twice with 5 ML of ice cold buffer. Nonspecific binding was determined in the presence of 10 μM (+)-pentazocine. Liquid scintillation counting was carried out in EcoLite (+) (ICN Radiochemicals; Costa Mesa, Calif.) using a Beckman LS 6000IC spectrometer with a counting efficiency of 50%. Typical counts were 70 dpm/μg protein for total binding, 6 dpm/μg protein for nonspecific binding, and 64 dpm/μg protein for specific binding.
as §1

In the case of `O=C(Nc1ccc(Cl)c(Cl)c1)O[C@H]1C[C@H]2CCC[C@@H](C1)N2Cc1ccccc1` [Compound 4, (3-endo)-9-Benzyl-9-azabicyclo[3.3.1]nonanyl-3-N-(3′, 4′-dichlorophenyl)-carbamate], the figures for the Ki in assay [1] and in assay [2] were 0.0919 µM and 0.0333 µM, respectively.
Turning to `COc1ccc(Cl)cc1NC(=O)O[C@H]1C[C@H]2CCC[C@@H](C1)N2Cc1ccccc1` [Compound 7, (3-endo)-9-Benzyl-9-azabicyclo[3.3.1]nonanyl-3-N-(5′-chloro-2′-methoxyphenyl)carbamate], the Ki in assay [1] was 0.0635 µM; in assay [2], above 1 µM.
For the compound `O=C(Nc1ccc(Cl)c(Cl)c1)O[C@H]1C[C@H]2CC[C@@H](C1)N2Cc1ccccc1` [Compound 10, (3-endo)-8-Benzyl-8-azabicyclo[3.2.1]octyl-3-N(3′, 4′-dichlorophenyl)-carbamate], the Ki in assay [1] turned out to be 0.0162 µM; in assay [2], 0.716 µM.
For `COc1cc(OC)c(NC(=O)O[C@H]2C[C@H]3CCC[C@@H](C2)N3Cc2ccccc2)cc1Cl` [Compound 6, (3-endo)-9-Benzyl-9-azabicyclo[3.3.1]nonanyl-3-N-(5′-chloro-2′, 4′-dimethoxyphenyl)carbamate], the results for the Ki in assay [1] and in assay [2] were 0.0229 µM and 0.189 µM, respectively.
Regarding `COc1ccc(Cl)cc1NC(=O)O[C@H]1C[C@H]2CC[C@@H](C1)N2C` [Compound 3, (3-endo)-8-Methyl-8-azabicyclo[3.2.1]octyl-3-N-(2′-methoxy-5′-chloro-phenyl)-carbamate], the Ki was 0.156 µM in assay [1] and above 1 µM in assay [2].
In the case of `CN1[C@@H]2CCC[C@H]1C[C@@H](OC(=O)Nc1ccc(Cl)c(Cl)c1)C2` [Compound 8, (3-endo)-9-Methyl-9-azabicyclo[3.3.1]nonanyl-3-N-(3′, 4′-dichlorophenyl)-carbamate], the values for the Ki in assay [1] and in assay [2] were 0.0503 µM and 0.595 µM, respectively.
For `COc1ccc(OC)c(NC(=O)O[C@H]2C[C@H]3CC[C@@H](C2)N3Cc2ccccc2)c1` [Compound 9, (3-endo)-8-Benzyl-8azabicyclo[3.2.1]octyl-3-N-(2′,5′-dimethoxyphenyl)-carbamate], the Ki stood at 0.0221 µM in assay [1] and 0.0724 µM in assay [2].
Turning to `COc1ccc(OC)c(NC(=O)O[C@H]2C[C@H]3CCC[C@@H](C2)N3Cc2ccccc2)c1` [Compound 5, (3-endo)-9-Benzyl-9-azabicyclo[3.3.1]nonanyl-3-N-(2′, 5′-dimethoxyphenyl)-carbamate], the Ki in assay [1] stood at 0.0282 µM; in assay [2] it was 0.329 µM.
For `CN1[C@@H]2CC[C@H]1C[C@@H](OC(=O)Nc1ccc(Cl)c(Cl)c1)C2` [Compound 2, (3-endo)-8-Methyl-8-azabicyclo[3.2.1]octyl-3-N-(3′, 4′-dichlorophenyl)-carbamate], the results for the Ki in assay [1] and in assay [2] were 0.0369 µM and above 1 µM, respectively.
